Columns and labels:
Type in all cases: biochemical
[1] = molecular target: tissue plasminogen activator (tPA) (Homo sapiens, UniProt P00750); test: fibrin-plate method, plasmin formation induced by tPA
Text: The inhibitory effect of the new compounds of the invention on plasmin (PL) as well as on plasmin formation induced by tissue plasminogen activator (tPA) and urokinase (UK) was examined by the fibrin-plate method [D. Bagdy et al.: Thromb. Haemost. 67, 325 (1992)]. Compounds C1 and C5 served as controls. […] V. Jackson et al.: J. Cardiovasc. Pharmacol. 21, 587 (1993))]. In Table 4 the results obtained with the new compounds 1 and 2 as well as those with controls C1 and C5 are presented as an example.

[2] = molecular target: T1, isolated human fXa (Homo sapiens, UniProt P00742); test: fXa inhibition in solution, amidolytic method on Bz-Ile-Glu-Gly-Arg-pNA chromogen substrate (Method M6); conditions: Table 3; isolated human fXa, Bz-Ile-Glu-Gly-Arg-pNA; read-out: B: fXa inhibiting IC50
T1 construct: The isolated active factor (e.g. thrombin, fXa) and its chromogen or fluorogen peptide-amide substrate are reacted; purchased SIGMA
Experimental: Anticoagulant activity (i.e. inhibition of the proteolytic reactions in the process) is measured by anticoagulant tests, e.g. in the thrombin time (TT), activated partial thromboplastin time (APTT) and prothrombin time (PT) tests [E. J. W. Bovie et al., Mayo Clinic Laboratory Manual of Haemostasis; W. B. Saunders Co., Philadelphia (1971)]. Plasma, inhibited in spontaneous coagulation, e.g. citrate-plasma, is made to coagulate and the required coagulation time is measured. Upon the action of anticoagulants the coagulation time is prolonged proportionally to the inhibition of the reaction(s) in the process. The anticoagulant effect can be characterised by the substance concentration required to prolong the coagulation time twofold compared to the control (IC50). The effect of anticoagulants on individual coagulant proteases is measured by the amidolytic method [R. Lottenberg et al., Methods in Enzymol. 80, 341 (1981); G. Cleason, Blood Coagulation and Fibrinolysis 5, 411 (1994)]. The isolated active factor (e.g. thrombin, fXa) and its chromogen or fluorogen peptide-amide substrate are reacted in the presence or absence of the inhibitor, resp. The enzyme inhibiting action is characterised by the inhibitory constant (IC50) measured during amidolysis.
The in vitro anticoagulant effects of the compounds of general formula (I) was measured by the prothrombin time (PT), activated partial thromboplastin time (APTT) and thrombin time (TT) tests [D. Bagdy et al., Thromb. Haemost. 67, 325 (1992)]. The fxa-inhibiting effect of the compounds was also determined using the Bz-Ile-Glu-Gly-Arg-pNA chromogen substrate (see method M6).
Determination of Factor Xa Inhibition in Solution on a 96-well Microtitre Plate
a) By means of phosphate buffer (0.1M sodium phosphate and 0.05M sodium chloride, pH=7.4) 1.3 E/ml solution is prepared from human factor Xa (SIGMA), and 0.1-1.0-10 and 100 μg/ml solutions from the peptide inhibitors. The Bz-Ile-Glu-Gly-Arg-pNA substrate is used in distilled water solution ([…]).
b) From the control and the peptide inhibitor solutions (3 parallel samples of each concentration) 30-30 μl aliquots are placed into the wells. 30 μl of factor Xa, 90 μl of buffer and 150 μl of substrate are added to the peptide solution and the extinction is determined after 10 min. at 405 nm. Thereafter the steps are the same as in M2/c.

[3] = molecular target: T2, clot-bound fXa (Homo sapiens, UniProt P00742); test: inhibition of plasma clot-bound factor Xa (Methods M1, M2); conditions: text b187, well below
T2 construct: from tissue; host or cells: clot of recalcified human platelet-rich plasma
Experimental: Plasma-clot was obtained by recalcificating platelet-rich human plasma, and fibrin gel by clotting human fibrinogen with human thrombin. For the activity measures of fXa and thrombin Z-D-Arg-Gly-Arg-pNA or Tos-Gly-Pro-Arg-pNA substrates were used in agreement with Methods M1-M3.
Preparation of Clots from Human Plasma
a) Platelet-rich plasma is prepared by centrifuging a 9:1 mixture of human blood and 3.8% sodium citrate solution for 5 min. at 240×g.
b) 200 μl platelet-rich plasma and 80 μl 40 mM CaCl2 solution are allowed to stand at room temperature for 1 hour. The thus-formed clot is washed with 6×2 ml of 0.9% NaCl solution with gentle stirring to remove the residual enzymes (thrombin and factor Xa). The washing medium is assayed for thrombin-like activity as follows:
c) To 400 μl of washing medium 100 μl of 1 mM Tos-Gly-Pro-Arg-pNA substrate solution is added, the mixture is incubated for 30 min at 37° C., then the reaction is stopped with 100 μl of 50% acetic acid. From this mixture 150 μl aliquots are applied onto a 96-well microtitre plate and the extinction coefficients are measured at 405 nm (ELISA READER SLT Laborinstrument GmbH, Austria). […]
c) From each reaction vessel 150 μl is applied onto a 96 well microtitre plate and extinction coefficients are measured at 405 nm (ELISA READER SLT Laborinstrument GmbH, Austria). […]

Chain of tissue plasminogen activator (tPA) (P00750 36-562, species assumed): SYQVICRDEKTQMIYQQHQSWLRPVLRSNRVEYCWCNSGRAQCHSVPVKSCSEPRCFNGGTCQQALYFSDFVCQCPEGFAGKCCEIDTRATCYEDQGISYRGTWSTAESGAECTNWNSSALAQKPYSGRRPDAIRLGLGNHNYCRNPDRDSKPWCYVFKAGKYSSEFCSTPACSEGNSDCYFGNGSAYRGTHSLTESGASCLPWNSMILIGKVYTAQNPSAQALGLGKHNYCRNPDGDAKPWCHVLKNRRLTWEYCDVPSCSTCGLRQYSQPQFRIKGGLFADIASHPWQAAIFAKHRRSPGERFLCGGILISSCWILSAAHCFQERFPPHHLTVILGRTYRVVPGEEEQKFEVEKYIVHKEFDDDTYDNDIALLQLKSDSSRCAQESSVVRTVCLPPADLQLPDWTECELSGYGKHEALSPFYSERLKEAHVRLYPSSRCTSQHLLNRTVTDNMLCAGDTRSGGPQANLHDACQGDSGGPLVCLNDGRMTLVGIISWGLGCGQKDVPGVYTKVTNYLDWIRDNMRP
T1 sequence (P00742 235-488 limits assumed): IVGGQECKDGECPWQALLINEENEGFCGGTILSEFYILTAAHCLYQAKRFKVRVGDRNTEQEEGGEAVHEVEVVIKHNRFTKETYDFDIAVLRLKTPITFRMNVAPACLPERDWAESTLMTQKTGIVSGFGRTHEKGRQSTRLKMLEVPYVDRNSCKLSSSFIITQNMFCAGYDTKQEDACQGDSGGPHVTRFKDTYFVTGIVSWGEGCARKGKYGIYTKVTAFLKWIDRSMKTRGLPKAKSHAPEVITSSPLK
T1 sequence (P00742 41-179 partner limits assumed): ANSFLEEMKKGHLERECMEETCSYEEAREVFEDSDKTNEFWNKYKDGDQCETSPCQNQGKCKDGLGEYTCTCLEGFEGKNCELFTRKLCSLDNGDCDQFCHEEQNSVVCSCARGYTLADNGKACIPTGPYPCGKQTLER
T2 sequence (P00742 235-488 limits assumed): as the sequence (P00742 235-488 limits assumed) above
T2 sequence (P00742 41-179 partner limits assumed): as the sequence (P00742 41-179 partner limits assumed) above

CCOC(=O)N[C@H](CC1CCC1)C(=O)N1CCC[C@H]1C(=O)N[C@H](C=O)CCCNC(=N)N [Example 1, Ethoxycarbonyl-3-cyclobutyl-D-alanyl-L-prolyl-L-arginine aldehyde]
IC50 ([1]; fibrin plate, hydrolysed area reduced to 50% of control): 27 µM | B: relative efficiency, tPA ([1]; related to the activity of C1 (1/IC50 = 1)): 4.9 | activity against tPA, times lower than that of compound C5 ([1]; text b147, second of three enzymes): 4.5 times | IC50 [2]: 40 nM | IC50 [3]: < 1000 nM
